The source made the active and inactive calls. No cut-off for these calls is given here.
Experiments:
HepaRG [1] = assay: Hepatotoxicity in human HepaRG cells assessed as GSH depletion at 500 uM after 3 to 12 hrs by ThiolTracker Violet dye-based fluorescence assay; assay type: toxicity, cell-based
HepaRG [2] = assay: Hepatotoxicity in human HepaRG cells assessed as GSH depletion at 500 uM measured over 12 hrs by ThiolTracker Violet dye-based fluorescence assay; assay type: toxicity, cell-based
HepaRG [3] = assay: Hepatotoxicity in human HepaRG cells assessed as GSH depletion at 1000 uM after 12 hrs by ThiolTracker Violet dye-based fluorescence assay; assay type: toxicity, cell-based
HepaRG [4] = assay: Hepatotoxicity in human HepaRG cells assessed as necrotic cell death at 500 uM measured over 12 hrs by LDH assay; assay type: toxicity, cell-based
HepaRG [5] = assay: Hepatotoxicity in human HepaRG cells assessed as necrotic cell death at 1000 uM measured over 12 hrs by LDH assay; assay type: toxicity, cell-based
Cytochrome P450 3A4 = Cytochrome P450 3A4 (Homo sapiens, UniProt P08684); assay: Inhibition of human CYP3A4 expressed in baculosomes at 1 uM using BOMCC as substrate preincubated for 20 mins followed by substrate and NADP+ addition and measured after 30 mins by fluorescence assay; assay type: ADME; conditions: recombinant enzyme, 0.5 h
Cytochrome P450 2E1 = Cytochrome P450 2E1 (Homo sapiens, UniProt P05181); assay: Inhibition of human CYP2E1 expressed in baculosomes at 1 uM using EOMCC as substrate preincubated for 20 mins followed by substrate and NADP+ addition and measured after 30 mins by fluorescence assay; assay type: ADME; conditions: recombinant enzyme, 0.5 h
Mus musculus = assay: Antipyretic activity in LPS-induced CD1 mouse fever model assessed as effect on rectal temperature at 50 ug/kg, po administered as single dose and measured every 2 hrs up to 24 hrs; assay type: functional, organism-based
Cytochrome P450 2D6 = Cytochrome P450 2D6 (Homo sapiens, UniProt P10635); assay: Inhibition of human CYP2D6 expressed in baculosomes at 1 uM using MOBFC as substrate preincubated for 20 mins followed by substrate and NADP+ addition and measured after 30 mins by fluorescence assay; assay type: ADME; conditions: recombinant enzyme, 0.5 h
Sequence of Cytochrome P450 2D6 (P10635 whole entry): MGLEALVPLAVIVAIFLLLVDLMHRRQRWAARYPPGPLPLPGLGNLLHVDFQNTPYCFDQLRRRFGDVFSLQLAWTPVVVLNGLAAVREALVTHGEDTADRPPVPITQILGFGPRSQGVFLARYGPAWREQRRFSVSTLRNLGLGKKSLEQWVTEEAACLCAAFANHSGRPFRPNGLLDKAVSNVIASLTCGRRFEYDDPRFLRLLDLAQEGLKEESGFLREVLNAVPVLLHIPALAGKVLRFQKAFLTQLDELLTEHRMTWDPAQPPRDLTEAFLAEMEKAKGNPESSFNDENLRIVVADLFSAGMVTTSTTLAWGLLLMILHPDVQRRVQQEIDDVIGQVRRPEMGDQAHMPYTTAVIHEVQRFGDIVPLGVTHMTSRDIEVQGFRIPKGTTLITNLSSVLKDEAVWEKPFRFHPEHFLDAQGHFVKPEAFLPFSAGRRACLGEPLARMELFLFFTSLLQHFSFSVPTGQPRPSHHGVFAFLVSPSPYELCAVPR

Sequence of Cytochrome P450 3A4 (P08684 whole entry): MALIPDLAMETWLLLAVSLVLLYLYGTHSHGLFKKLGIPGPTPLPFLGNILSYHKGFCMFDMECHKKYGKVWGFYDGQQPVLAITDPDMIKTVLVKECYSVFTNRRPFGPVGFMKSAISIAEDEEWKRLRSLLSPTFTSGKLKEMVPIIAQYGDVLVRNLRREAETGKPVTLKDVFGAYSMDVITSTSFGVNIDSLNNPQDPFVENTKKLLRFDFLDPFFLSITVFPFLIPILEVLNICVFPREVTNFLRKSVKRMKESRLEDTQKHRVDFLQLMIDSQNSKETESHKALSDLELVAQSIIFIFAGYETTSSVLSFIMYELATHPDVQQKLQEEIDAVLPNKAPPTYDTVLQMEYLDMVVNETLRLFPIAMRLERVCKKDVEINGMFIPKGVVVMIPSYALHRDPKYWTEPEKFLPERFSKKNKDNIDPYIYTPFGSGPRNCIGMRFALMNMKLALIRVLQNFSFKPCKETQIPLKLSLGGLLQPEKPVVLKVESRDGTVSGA
Sequence of Cytochrome P450 2E1 (P05181 whole entry): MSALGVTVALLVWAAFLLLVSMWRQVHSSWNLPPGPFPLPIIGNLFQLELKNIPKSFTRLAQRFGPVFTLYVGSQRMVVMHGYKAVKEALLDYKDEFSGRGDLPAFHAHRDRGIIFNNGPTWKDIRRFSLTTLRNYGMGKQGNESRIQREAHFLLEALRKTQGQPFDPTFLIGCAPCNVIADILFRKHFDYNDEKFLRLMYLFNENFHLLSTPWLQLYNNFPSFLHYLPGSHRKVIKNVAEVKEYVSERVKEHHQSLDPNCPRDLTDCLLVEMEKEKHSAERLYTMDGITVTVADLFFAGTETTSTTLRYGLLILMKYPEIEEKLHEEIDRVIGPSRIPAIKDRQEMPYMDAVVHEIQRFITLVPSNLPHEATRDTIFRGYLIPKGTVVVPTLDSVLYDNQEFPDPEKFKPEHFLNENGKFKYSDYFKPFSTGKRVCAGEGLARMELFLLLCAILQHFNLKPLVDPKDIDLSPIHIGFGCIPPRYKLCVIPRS

Row | inhibition (INH) (Cytochrome P450 3A4) | inhibition (INH) (Cytochrome P450 2E1) | inhibition (INH) (Cytochrome P450 2D6) | SMILES | Activity (HepaRG [1]) | Activity (HepaRG [2]) | Activity (HepaRG [3]) | Activity (HepaRG [4]) | Activity (HepaRG [5]) | Activity (Mus musculus)
1 | Active | Active | – | CC(=O)Nc1ccc(O)cc1 [ACETAMINOPHEN] | Toxic | Toxic | Toxic | Toxic | Toxic | Active
2 | Not Active | Not Active | Not Active | O=C(CN1C(=O)c2ccccc2S1(=O)=O)Nc1ccc(O)cc1 | Toxic | Toxic | Non-Toxic | Non-Toxic | Toxic | –
3 | Not Active | Not Active | Not Active | O=C(CN1C(=O)c2ccccc2S1(=O)=O)Nc1ccc(OC(=O)CCCO[N+](=O)[O-])cc1 | Non-Toxic | Non-Toxic | Non-Toxic | Toxic | – | Active
4 | Not Active | Not Active | Not Active | O=C(CN1C(=O)c2ccccc2S1(=O)=O)Nc1ccc(OC(=O)CCO[N+](=O)[O-])cc1 | Non-Toxic | Non-Toxic | Non-Toxic | Non-Toxic | Non-Toxic | inactive

Reference: ChEMBL document CHEMBL4257568, “Synthesis, hepatotoxic evaluation and antipyretic activity of nitrate ester analogs of the acetaminophen derivative SCP-1” (Bioorg Med Chem Lett, 2018)
